Reference: PMC6472001, “Phenolic Compounds from Humulus lupulus as Natural Antimicrobial Products: New Weapons in the Fight against Methicillin Resistant Staphylococcus aureus, Leishmania mexicana and Trypanosoma brucei Strains” (Molecules, 2019)
Where two headings read alike, the source gives them in different places.

What was measured:
[1] = system: S. aureus T28.1 (MRSA); assay: Broth microdilution MIC; type: cell-based, Staphylococcus aureus
Description: (§1) The protocol employed was inspired by Abedini et al. with some modifications. Products were solubilized in DMSO and serially diluted two-fold in MH medium. A bacterial suspension at 10^5 CFU/mL was added to obtain a final volume of 200 µL. Final phenolic product concentrations in wells ranged from 625 to 2.4 µg/mL (exception for lupulone for which dilutions were continued until 0.3 µg/mL). […] Plates were incubated overnight with stirring (60 rpm) at 37 °C.
For the following experiments, the MRSA strain T28.1, isolated from a pathological sample of osteitis, was used. It was previously characterized by DNA biochips, which allowed highlighting some β-lactamases and the SCC-mec genes confirming the methicillin resistance. Moreover, genes for enzymes and proteins involved in the capsule biosynthesis (capH5, capJ5 and capK5) and several intracellular adhesion proteins implicated in biofilm formation (icaA, icaC and icaD) were present.

[2] = system: S. aureus 08143 (MSSA); assay: Broth microdilution MIC; type: cell-based, Staphylococcus aureus; details: S. aureus 08143 (MSSA)
Description: as §1

[3] = system: S. aureus T25.10 (MRSA); assay: Broth microdilution MIC; type: cell-based, Staphylococcus aureus; details: S. aureus T25.10 (MRSA)
Description: as §1

[4] = system: S. aureus T26A4 (MSSA); assay: Broth microdilution MIC; type: cell-based, Staphylococcus aureus; details: S. aureus T26A4 (MSSA)
Description: as §1

[5] = system: S. aureus T28.1; assay: Kill curves; type: cell-based, Staphylococcus aureus
Description: This experiment allowed following in time the effect of the product on a growing bacterial population, highlighting the bactericidal or bacteriostatic effect. Stock solutions of xanthohumol, desmethylxanthohumol and lupulone were prepared in DMSO 20 times more concentrated than the desired final concentrations (MIC/4 to 4xMIC). An aliquot of 0.5 mL of purified product in DMSO was added to 8.5 mL of brain heart infusion (BHI) medium (Oxoid, UK). 1 mL of bacterial suspension at 10^5 CFU/mL was then introduced to the culture tube. A 5% DMSO control served as a negative control and was performed at each test. Culture tubes were incubated at 37 °C for 24 h. Counts were made every 2 h until 8 h and at 24 h by plating aliquots of serial tenfold dilutions on MHA. The determined bacterial concentrations were then converted into log(CFU/mL) and were expressed as a function of time. The detection threshold of this method was 10 CFU/mL and 1 log(CFU/mL) on graphics.

[6] = system: S. aureus T28.1 biofilm; assay: Anti-biofilm: biofilm formation on artificial surface; type: cell-based, Staphylococcus aureus
Description: These experiments were inspired and adapted from Liu et al.. They were performed using a 96-well microplate with a flat bottom.
First, the effect of xanthohumol, desmethylxanthohumol and lupulone was assessed on the biofilm formation: 180 µL of BHI medium containing glucose at 10 mg/mL was added to each well of a 96-well microplate with 10 µL of the product previously solubilized in DMSO and 10 µL of a 10^5 CFU/mL bacterial suspension. The maximum concentration in DMSO was 5%. Final concentrations of purified products were from MIC/4 to 4 × MIC. After 24 h incubation at 37 °C, wells were voided and washed 3 times with phosphate buffered saline solution (PBS, Sigma-Aldrich, Saint-Quentin Fallavier, France). Plates were then dried and 150 µL of crystal violet solution at 20 mg/mL in MeOH (Sigma-Aldrich®, Saint-Quentin Fallavier, France) were added for 15 min. After removing crystal violet, 150 µL of EtOH were added to solubilize crystal violet present in adherent bacteria. The optical density was read at 570 nm.

[7] = system: Leishmania mexicana mexicana (Lmm); assay: Antiparasitic activity, broth microdilution; type: cell-based
Description: (§2) Tbb were cultivated in HMI9 medium containing 10% heat-inactivated foetal bovine serum (FBS) (Sigma-Aldrich), […] L-cysteine and […] beta-mercaptoethanol at 37 °C (CO2 5%). Lmm (MHOM/BZ/84/BEL46) were cultivated in SDM-79 medium (Gibco) supplemented with 15% heat-inactivated FBS (Sigma-Aldrich) and 5 mg/L hemin at 28 °C (CO2 5%). Antiparasitic bioassays were performed as described by Bero et al.. Suramin (SUR) and pentamidine (PEN) were used as positive controls respectively. The hops compounds (xanthohumol, desmethylxanthohumol, humulone, lupulone) concentration that inhibits 50% of the cell viability (IC50) was determined using GraphPad Prism, version 5.01 (GraphPad Software, San Diego, CA, USA).

[8] = system: Trypanosoma brucei brucei (Tbb); assay: Antiparasitic activity, broth microdilution; type: cell-based
Description: as §2

[9] = system: Hep-G2 cells (hepatocellular carcinoma); assay: Cytotoxicity / antiproliferative effect; type: cell-based, human
Description: (§3) Several human cell lines were used for the cytotoxic bioassays: non-cancer lung fibroblasts (WI-38), hepatocellular carcinoma (Hep-G2), osteosarcoma (MG-63) and the mouse monocyte macrophage J774. Cells were seeded into wells of a 96-well microplate in a Gibco™ Dulbecco’s modified eagles medium (DMEM), except for MG-63 which were cultivated in a minimum essential medium (MEM) (ThermoFisher Scientific, Illkirch-Graffenstaden, France). Both media were enriched with 10% FBS (ThermoFisher Scientific, France) and some antibiotics (mixture penicillin/streptomycin 100 UI/mL, Sigma Aldrich). After one or two days at 37 °C (5% of CO2), wells were emptied by suction. Cells were then treated with hops compounds (xanthohumol, desmethylxanthohumol, humulone, lupulone) in DMSO at 0.2% in the culture medium, to obtain a final volume of 100 µL in wells (negative control: 0.2% DMSO). Camptothecin was used as a positive control. After 48 to 72 h exposure, culture medium was replaced by 10% of Alamar blue or 3-(4,5-dimethylthiazol-2-yl)-2,5-diphenyltetrazolium bromide (MTT) in the medium (ThermoFisher Scientific®, Illkirch, France) and plates were incubated the time necessary to the reaction. Results were measured respectively by fluorescence (excitation 530 nm and emission 590 nm) or by optical density at 550 nm. The IC50 of each product was determined using GraphPad Prism (version 5.01).

[10] = system: WI-38 cells (non-cancer lung fibroblasts); assay: Cytotoxicity / antiproliferative effect; type: cell-based, human
Description: as §3

[11] = Staphylococcus aureus, S. aureus T28.1 (MRSA), read-out: MIC
[12] = Staphylococcus aureus, S. aureus T28.1 (MRSA), value in parentheses, read-out: MIC
[13] = Staphylococcus aureus, read-out: MIC
[14] = Staphylococcus aureus, value in parentheses, read-out: MIC
[15] = Leishmania mexicana, read-out: IC50 (converted)
[16] = Leishmania mexicana, value in parentheses, read-out: IC50 (converted)
[17] = Trypanosoma brucei, read-out: IC50 (converted)
[18] = Trypanosoma brucei, value in parentheses, read-out: IC50 (converted)
[19] = Homo sapiens, HepG2, read-out: IC50 ± SD
[20] = Homo sapiens, HepG2, value in parentheses, read-out: IC50 (converted)
[21] = Homo sapiens, read-out: IC50 ± SD
[22] = Homo sapiens, value in parentheses, read-out: IC50 (converted)
[23] = value in parentheses, read-out: MIC
[24] = value in parentheses, read-out: IC50 (converted)

Row | Compound | MIC [1, 11] [µg/mL] | MIC [1, 12] [µM] | MIC [2, 13] [µg/mL] | MIC [2, 14] [µM] | MIC [3, 13] [µg/mL] | MIC [3, 14] [µM] | MIC [4, 13] [µg/mL] | MIC [4, 14] [µM] | Biofilm formation on artificial surface ([6]; sub-inhibitory concentrations) | IC50 [7, 15] [µg/mL] | IC50 [7, 16] [µM] | IC50 [8, 17] [µg/mL] | IC50 [8, 18] [µM] | IC50 [9, 19] [µg/mL] | IC50 [9, 20] [µM] | IC50 [10, 21] [µg/mL] | IC50 [10, 22] [µM] | further results
1 | CC(C)=CCc1c(O)cc(O)c(C(=O)/C=C/c2ccc(O)cc2)c1O [DMX, desmethylxanthohumol] | 39 | 115 | 39 | 115 | 19.5 | 57.3 | 39 | 115 | significant inhibition | 26.2 ± 1.8 | 77 | 7.7 ± 0.6 | 22.6 | 22.4 ± 2.9 | 65.9 | 60.7 ± 2.5 | 178 | Bacterial population reached (detection threshold) ([5]; 2 × MIC, after 24 h): 1 log(CFU/mL)
2 | COc1cc(O)c(CC=C(C)C)c(O)c1C(=O)/C=C/c1ccc(O)cc1 [XN, xanthohumol] | 9.8 | 27.7 | 19.5 | 55 | 9.8 | 27.7 | 9.8 | 27.7 |  | 6.1 ± 3.1 | 17.2 | 2.4 ± 0.2 | 6.8 | 2.5 ± 0.8 | 7.1 | 6.9 ± 0.5 | 19.5 | Decrease of the bacterial population ([5]; 2xMIC, first 4 h): around 3 log(CFU/mL); Decrease of the bacterial population ([5]; MIC/2, first 6 h): 0.5 log(CFU/mL); Decrease of the bacterial population ([5]; at the MIC, during 24 h): 2 log(CFU/mL); Biofilm formation on artificial surface ([6]; at the MIC): totally inhibited; Inhibition of biofilm formation ([6]; at the MIC): ~100%
3 | lupulone |  |  |  |  |  |  |  |  | significant inhibition |  |  |  |  |  |  |  |  | MIC ([1]; S. aureus T28.1 (MRSA)): 1.2 µg/mL; MIC ([1]; S. aureus T28.1 (MRSA), value in parentheses, read-out: MIC): 2.9 µM; MIC ([1]; strain MRSA T28.1): 1.2 µg/mL; MIC [2]: 1.2 µg/mL; MIC [2, 23]: 2.9 µM; MIC [3]: 0.6 µg/mL; MIC [3, 23]: 1.45 µM; MIC [4]: 0.6 µg/mL; MIC [4, 23]: 1.45 µM; Reduction between the control and 2 × MIC ([5]; 2 × MIC): about 3 log(CFU/mL); Kill curve effect at 4 × MIC ([5]; 4 × MIC): slightly decreased the bacterial population; IC50 [7]: 4.7 ± 0.1 µg/mL; IC50 [7, 24]: 11.3 µM; IC50 [8]: 0.9 ± 0.0 µg/mL; IC50 [8, 24]: 2.2 µM; IC50 ± SD [9]: 1.2 ± 0.5 µg/mL; IC50 [9, 24]: 2.9 µM; IC50 ± SD [10]: 1.1 ± 0.0 µg/mL; IC50 [10, 24]: 2.6 µM
